The values that follow are results of earlier work, collected in patent US11856951B2, “Method for managing resistance to insecticidal traits and chemicals using pheromones” (Provivi, Inc., priority 2015, dated 2024).

For one data set, the system named is mated female H. armigera. To be noted: mated females.
The next data set deals with H. armigera males. The following applies: wind tunnel assays.

Turning to `CCCC(C)CCCC(C)CCCC(C)C(=O)OC` (centres unmarked) [TMTD, methyl 2,6,10-trimethyltridecanoate], the attraction to lures result in the data set on Female E. heros was “attracted”.
On to `CCCCCCC=O` [Heptanal], for which the “attractiveness of an oviposition substrate” value in the data set with mated H. armigera was “significantly increase the attractiveness”.
For the compound `O=Cc1ccccc1` [benzaldehyde], the “attractiveness of an oviposition substrate” value in the data set on mated H. armigera is “significantly increase the attractiveness”.
For `C=C` [ethylene], the “correlation of concentration with calling behaviour” value in the data set on virgin female H. zea is recorded as “positively correlated”.
For the compound `CCCCCCCCCCCCCCCCCC(=O)O` [C18:0], in the data set with mated female H. armigera, the electroantennogram response entry is “strong electroantennogram responses”.
For `CCCCCCCCCCCCCC(=O)O` [C14:0], the electroantennogram response entry in the data set with mated female H. armigera is “strong electroantennogram responses”.
Take `CCCC/C=C\CCCCCCCCCCO` [Z11-16:OH]: in the data set with H. armigera males, the “effect on male upwind flight” value is on record as “inhibits male upwind flight”.
As for `CCCCCCCCCCCCCCCC(=O)O` [C16:0], the electroantennogram response result with mated female H. armigera is “strong electroantennogram responses”.
